Consider 34 compounds from patent US7879858B2, “Substituted tetrahydropyrrolopyrazine compounds and the use thereof in pharmaceutical compositions” (Gruenenthal GmbH, priority 2006, dated 2011).

Usually inhibition stands for the relative decrease from the control value, in per cent.

Structures are written as SMILES.

The target of one test is T1, Serotonin reuptake (Rattus norvegicus, UniProt P31652).
T1 construct: synaptosomes are freshly isolated from areas of the rat brain; from tissue; host or cells: rat brain synaptosomes (P2 fraction)
Description: Inhibition of 5HT (serotonin) uptake in rat brain synaptosomes. In kind it is biochemical. The settings on record: 10 μmol; synaptosomes from rat brain. As for the experimental part:
(§1) Biological Data Inhibition of NA and 5HT Uptake
(§2) In order to be able to carry out these in vitro studies, synaptosomes are freshly isolated from areas of the rat brain. In each case a so-called “P2” fraction prepared in accordance with the instructions of Gray and Whittaker (E. G. Gray and V. P. Whittaker (1962) J. Anat. 76, 79-88) is prepared. For the NA uptake, these vesicular particles are isolated from the hypothalamus of male rat brains. A detailed description of the method can be found in the literature (M. Ch. Frink, H.-H. Hennies, W. Englberger, M. Haurand and B. Wilffert (1996) Arzneim.-Forsch./Drug Res. 46 (III), 11, 1029-1036).

Another test concerns NA reuptake. The experiment in a line: Inhibition of NA (noradrenaline) uptake in rat hypothalamus synaptosomes. The conditions noted are these: synaptosomes from hypothalamus of male rat brains. In kind it is biochemical. As for the experimental part:
as §1, §2

T1 sequence (P31652 whole entry): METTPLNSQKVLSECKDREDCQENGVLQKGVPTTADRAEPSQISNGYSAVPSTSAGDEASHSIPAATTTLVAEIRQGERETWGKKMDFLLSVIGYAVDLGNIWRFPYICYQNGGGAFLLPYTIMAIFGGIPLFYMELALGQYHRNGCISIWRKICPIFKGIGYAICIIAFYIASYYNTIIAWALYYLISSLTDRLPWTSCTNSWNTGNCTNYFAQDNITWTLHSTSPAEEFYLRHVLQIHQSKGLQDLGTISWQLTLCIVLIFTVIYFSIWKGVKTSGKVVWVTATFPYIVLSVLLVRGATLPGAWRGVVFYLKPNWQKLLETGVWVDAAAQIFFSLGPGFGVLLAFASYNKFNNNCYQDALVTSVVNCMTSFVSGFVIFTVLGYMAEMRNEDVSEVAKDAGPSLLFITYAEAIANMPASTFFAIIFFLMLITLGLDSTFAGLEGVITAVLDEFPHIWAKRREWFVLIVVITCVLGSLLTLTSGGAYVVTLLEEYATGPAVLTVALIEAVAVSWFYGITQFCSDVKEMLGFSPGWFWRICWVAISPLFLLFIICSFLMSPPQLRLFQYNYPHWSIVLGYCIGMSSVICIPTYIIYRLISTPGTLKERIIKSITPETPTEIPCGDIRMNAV

With `COc1ccccc1C1c2cccn2CCN1C(=O)c1cccc(F)c1` (centres unmarked) [Example 1, (3-fluorophenyl)(1-(2-methoxyphenyl)-3,4-dihydropyrrolo[1,2-a]pyrazin-2(1H)-yl)methanone], at Serotonin reuptake, the inhibition at 10 µM was 26%.

With `COc1ccccc1C1c2cccn2CCN1C(=O)C1CCCC1` (centres unmarked) [Example 2, cyclopentyl-[1-(2-methoxy-phenyl)-3,4-dihydro-1H-pyrrolo[1,2-a]pyrazin-2-yl]-methanone], 10 µM produced 79% inhibition at Serotonin reuptake. Also, the “NA reuptake % inhibition [10 μmol]” value in the test on NA reuptake is 36%.

In turn, `COc1ccccc1C1c2cccn2CCN1C(=O)c1ccc2c(c1)OCO2` (centres unmarked) [Example 3, benzo[1,3]dioxol-5-yl-[1-(2-methoxy-phenyl)-3,4-dihydro-1H-pyrrolo[1,2-a]pyrazin-2-yl]-methanone] returned an inhibition at 10 µM on Serotonin reuptake of 86%. Besides, the “NA reuptake % inhibition [10 μmol]” value in the test on NA reuptake is given as 29%.

`COc1ccccc1C(=O)N1CCn2cccc2C1c1ccccc1OC` (centres unmarked) [Example 4, (2-methoxy-phenyl)-[1-(2-methoxy-phenyl)-3,4-dihydro-1H-pyrrolo[1,2-a]pyrazin-2-yl]-methanone] registered an inhibition at 10 µM at Serotonin reuptake of 82%. Besides, in the test on NA reuptake, the “NA reuptake % inhibition [10 μmol]” value came to 13%.

Compound `O=C(c1ccco1)N1CCn2cccc2C1c1ccccc1F` (centres unmarked) [Example 5, (1-(2-fluorophenyl)-3,4-dihydropyrrolo[1,2-a]pyrazin-2(1H)-yl)(furan-2-yl)methanone] gave an inhibition at 10 µM at Serotonin reuptake of 11%. Besides, in the test on NA reuptake, the “NA reuptake % inhibition [10 μmol]” value was 34%.

On to `O=C(C1CC1)N1CCn2cccc2C1c1ccccc1F` (centres unmarked) [Example 6, cyclopropyl(1-(2-fluorophenyl)-3,4-dihydropyrrolo[1,2-a]pyrazin-2(1H)-yl)methanone], for which, on Serotonin reuptake, the inhibition at 10 µM came out at 34%. Moreover, the “NA reuptake % inhibition [10 μmol]” value in the test with NA reuptake is listed as 13%.

Consider `O=C(c1cccc(F)c1)N1CCn2cccc2C1c1ccccc1F` (centres unmarked) [Example 7, (3-fluoro-phenyl)-[1-(2-fluoro-phenyl)-3,4-dihydro-1H-pyrrolo[1,2-a]pyrazin-2-yl]-methanone], for which the inhibition at 10 µM against Serotonin reuptake was found to be 54%. Also, the “NA reuptake % inhibition [10 μmol]” value with NA reuptake turned out to be 36%.

`Cc1ccccc1C(=O)N1CCn2cccc2C1c1ccccc1F` (centres unmarked) [Example 8, (1-(2-fluorophenyl)-3,4-dihydropyrrolo[1,2-a]pyrazin-2(1H)-yl)(o-tolyl)methanone] had an inhibition at 10 µM at Serotonin reuptake of 37%. The “NA reuptake % inhibition [10 μmol]” value with NA reuptake came to 18%.

For `O=C(c1ccc2c(c1)OCO2)N1CCn2cccc2C1c1ccccc1F` (centres unmarked) [Example 9, benzo[d][1,3]dioxol-5-yl(1-(2-fluorophenyl)-3,4-dihydropyrrolo[1,2-a]pyrazin-2(1H)-yl)methanone], 10 µM produced 30% inhibition on Serotonin reuptake. Also, in the test with NA reuptake, the “NA reuptake % inhibition [10 μmol]” value is on record as 27%.

Take `Cc1ccccc1C1c2cccn2CCN1C(=O)C1CCCC1` (centres unmarked) [Example 10, cyclopentyl-(1-o-tolyl-3,4-dihydro-1H-pyrrolo[1,2-a]pyrazin-2-yl)-methanone]: 10 µM produced 50% inhibition at Serotonin reuptake. The “NA reuptake % inhibition [10 μmol]” value in the test with NA reuptake is recorded as 30%.

Compound `Cc1ccccc1C(=O)N1CCn2cccc2C1c1ccccc1C` (centres unmarked) [Example 11, o-tolyl(1-o-tolyl-3,4-dihydropyrrolo[1,2-a]pyrazin-2(1H)-yl)methanone] showed an inhibition at 10 µM at Serotonin reuptake of 38%.

For the compound `Cc1ccccc1C1c2cccn2CCN1C(=O)c1ccc2c(c1)OCO2` (centres unmarked) [Example 12, benzo[d][1,3]dioxol-5-yl(1-o-tolyl-3,4-dihydropyrrolo[1,2-a]pyrazin-2(1H)-yl)methanone], the inhibition at 10 µM at Serotonin reuptake turned out to be 34%. For the same compound, in the test with NA reuptake, the “NA reuptake % inhibition [10 μmol]” value was 22%.

Turning to `Cc1cccc(C2c3cccn3CCN2C(=O)c2ccc(F)cc2)c1` (centres unmarked) [Example 13, (4-fluoro-phenyl)-(1-m-tolyl-3,4-dihydro-1H-pyrrolo[1,2-a]pyrazin-2-yl)-methanone], testing at 10 µM against Serotonin reuptake gave an inhibition of 55%. For the same compound, the “NA reuptake % inhibition [10 μmol]” value in the test on NA reuptake stood at 41%.

Compound `Cc1cccc(C2c3cccn3CCN2C(=O)c2cccs2)c1` (centres unmarked) [Example 14, thiophen-2-yl(1-m-tolyl-3,4-dihydropyrrolo[1,2-a]pyrazin-2(1H)-yl)methanone] showed an inhibition at 10 µM against Serotonin reuptake of 27%. The “NA reuptake % inhibition [10 μmol]” value with NA reuptake was found to be 25%.

Consider `Cc1cccc(C2c3cccn3CCN2C(=O)CC(C)C)c1` (centres unmarked) [Example 15, 3-methyl-1-(1-m-tolyl-3,4-dihydropyrrolo[1,2-a]pyrazin-2(1H)-yl)butan-1-one], for which the inhibition at 10 µM at Serotonin reuptake was 28%. Moreover, the “NA reuptake % inhibition [10 μmol]” value with NA reuptake was found to be 19%.

`Cc1cccc(C2c3cccn3CCN2C(=O)c2cccc(F)c2)c1` (centres unmarked) [Example 16, (3-fluoro-phenyl)-(1-m-tolyl-3,4-dihydro-1H-pyrrolo[1,2-a]pyrazin-2-yl)-methanone] showed an inhibition at 10 µM at Serotonin reuptake of 54%. Moreover, the “NA reuptake % inhibition [10 μmol]” value in the test with NA reuptake is listed as 49%.

Compound `Cc1cccc(C2c3cccn3CCN2C(=O)C2CCCC2)c1` (centres unmarked) [Example 17, cyclopentyl(1-m-tolyl-3,4-dihydropyrrolo[1,2-a]pyrazin-2(1H)-yl)methanone] had an inhibition at 10 µM at Serotonin reuptake of 34%. Moreover, the “NA reuptake % inhibition [10 μmol]” value in the test with NA reuptake is reported as 21%.

`Cc1cccc(C2c3cccn3CCN2C(=O)c2ccc3c(c2)OCO3)c1` (centres unmarked) [Example 18, benzo[1,3]dioxol-5-yl-(1-m-tolyl-3,4-dihydro-1H-pyrrolo[1,2-a]pyrazin-2-yl)-methanone] had an inhibition at 10 µM against Serotonin reuptake of 55%. The “NA reuptake % inhibition [10 μmol]” value in the test with NA reuptake was 40%.

For `O=C(c1ccc(F)cc1)N1CCn2cccc2C1c1ccc(F)cc1F` (centres unmarked) [Example 19, (1-(2,4-difluorophenyl)-3,4-dihydropyrrolo[1,2-a]pyrazin-2(1H)-yl)(4-fluorophenyl)methanone], at 10 µM the inhibition at Serotonin reuptake was 35%. Moreover, the “NA reuptake % inhibition [10 μmol]” value in the test on NA reuptake is recorded as 28%.

Take `O=C(c1ccc(F)cc1)N1CCn2cccc2C1c1ccccc1` (centres unmarked) [Example 20, (4-fluorophenyl)(1-phenyl-3,4-dihydropyrrolo[1,2-a]pyrazin-2(1H)-yl)methanone]: 10 µM produced 32% inhibition at Serotonin reuptake. In addition, the “NA reuptake % inhibition [10 μmol]” value in the test on NA reuptake is recorded as 33%.

Take `O=C(c1ccco1)N1CCn2cccc2C1c1ccccc1` (centres unmarked) [Example 21, furan-2-yl(1-phenyl-3,4-dihydropyrrolo[1,2-a]pyrazin-2(1H)-yl)methanone]: 10 µM produced 11% inhibition at Serotonin reuptake. Further, in the test on NA reuptake, the “NA reuptake % inhibition [10 μmol]” value stood at 44%.

Turning to `O=C(c1cccs1)N1CCn2cccc2C1c1ccccc1` (centres unmarked) [Example 22, (1-phenyl-3,4-dihydropyrrolo[1,2-a]pyrazin-2(1H)-yl)(thiophen-2-yl)methanone], on Serotonin reuptake, at 10 µM the inhibition was 18%. Moreover, the “NA reuptake % inhibition [10 μmol]” value with NA reuptake was 33%.

In turn, `O=C(c1cccc(F)c1)N1CCn2cccc2C1c1ccccc1` (centres unmarked) [Example 23, (3-fluorophenyl)(1-phenyl-3,4-dihydropyrrolo[1,2-a]pyrazin-2(1H)-yl)methanone] returned an inhibition at 10 µM against Serotonin reuptake of 42%. The “NA reuptake % inhibition [10 μmol]” value in the test on NA reuptake was 41%.

On Serotonin reuptake, `O=C(C1CCCC1)N1CCn2cccc2C1c1ccccc1` (centres unmarked) [Example 24, cyclopentyl(1-phenyl-3,4-dihydropyrrolo[1,2-a]pyrazin-2(1H)-yl)methanone] displayed an inhibition at 10 µM of 32%. Moreover, the “NA reuptake % inhibition [10 μmol]” value in the test on NA reuptake was found to be 44%.

Compound `CCC(C)C(=O)N1CCn2cccc2C1c1ccccc1C` (centres unmarked) [Example 31, 2-methyl-1-(1-o-tolyl-3,4-dihydropyrrolo[1,2-a]pyrazin-2(1H)-yl)butan-1-one] returned an inhibition at 10 µM at Serotonin reuptake of 26%.

On Serotonin reuptake, `CCC(C)C(=O)N1CCn2cccc2C1c1ccccc1OC` (centres unmarked) [Example 48, 1-(1-(2-methoxyphenyl)-3,4-dihydropyrrolo[1,2-a]pyrazin-2(1H)-yl)-2-methylbutan-1-one] had an inhibition at 10 µM of 27%.

As to `CCC(OC)C(=O)N1CCn2cccc2C1c1cccs1` (centres unmarked) [Example 55, 2-methoxy-1-(1-(thiophen-2-yl)-3,4-dihydropyrrolo[1,2-a]pyrazin-2(1H)-yl)butan-1-one], at Serotonin reuptake, the inhibition at 10 µM amounted to 28%.

With `CC1c2cccn2CCN1C(=O)/C=C/c1ccc(F)cc1` (centres unmarked) [Example 73, 3-(4-fluorophenyl)-1-(1-methyl-3,4-dihydropyrrolo[1,2-a]pyrazin-2(1H)-yl)prop-2-en-1-one], at Serotonin reuptake, the inhibition at 10 µM came out at 25%.

Consider `CC1c2cccn2CCN1C(=O)/C=C/c1ccc(SC(F)(F)F)cc1` (centres unmarked) [Example 74, 1-(1-methyl-3,4-dihydropyrrolo[1,2-a]pyrazin-2(1H)-yl)-3-(4-(trifluoromethylthio)phenyl)prop-2-en-1-one], for which testing at 10 µM against Serotonin reuptake gave an inhibition of 32%.

`CCCCCC(=O)N1CCn2cccc2C1c1cccs1` (centres unmarked) [Example 78, 1-(1-(thiophen-2-yl)-3,4-dihydropyrrolo[1,2-a]pyrazin-2(1H)-yl)hexan-1-one] came in with an inhibition at 10 µM on Serotonin reuptake of 51%.

As to `O=C(c1ccccc1)N1CCn2cccc2C1c1cccs1` (centres unmarked) [Example 82, phenyl(1-(thiophen-2-yl)-3,4-dihydropyrrolo[1,2-a]pyrazin-2(1H)-yl)methanone], the “NA reuptake % inhibition [10 μmol]” value with NA reuptake is 35%.

`CC(=O)N1CCn2cccc2C1c1cccs1` (centres unmarked) [Example 83, 1-(1-(thiophen-2-yl)-3,4-dihydropyrrolo[1,2-a]pyrazin-2(1H)-yl)ethanone] gave an inhibition at 10 µM against Serotonin reuptake of 16%.

In the case of `CC(C)(C)CC(=O)N1CCn2cccc2C1c1cccs1` (centres unmarked) [Example 85, 3,3-dimethyl-1-(1-(thiophen-2-yl)-3,4-dihydropyrrolo[1,2-a]pyrazin-2(1H)-yl)butan-1-one], the inhibition at 10 µM against Serotonin reuptake is 12%.

On Serotonin reuptake, `O=C(CCCc1ccccc1)N1CCn2cccc2C1c1cccs1` (centres unmarked) [Example 87, 4-phenyl-1-(1-(thiophen-2-yl)-3,4-dihydropyrrolo[1,2-a]pyrazin-2(1H)-yl)butan-1-one] showed an inhibition at 10 µM of 17%.
